{
  "source": "patent US20230086007A1",
  "about": "“USE OF DENATONIUM BENZOATE AS A SEED TREATMENT FOR CROPS AS BIRD AND/OR INSECT REPELLENT” (KWS SAAT SE & Co. KGaA, priority 2020, published 2023)",
  "key": {"maize plants": {"tested_on": "maize plants", "experiment": "Wireworm field trial in Italy: phytotoxicity (PHYGEN) and vigor (VIGOR)", "settings": "for PHYGEN phytotoxicity, stage E: at emergence; for VIGOR, stage E / VIGOR, stage V3 / VIGOR, stage V5: ratings from 1-10 (10 is best)", "description": "Evaluation took place at emergence (E), at V3 stage (=3 leaves unfolded) and at V5 stage (=5 leaves unfolded). The following characteristics have been phenotyped: phytotoxicity (PHYGEN) at stage E, V3 and V5 in % per plot, vigor (VIGOR) at stage E, V3 and V5 in ratings from 1-10 (10 is best), insect damage (DAMINS) at stage V5 in plants per row (left DAMINS column in Table 7) and in % per row (right DAMINS column in Table 7)."}, "corvid": {"tested_on": "corvid", "experiment": "Additional bird repellent field trials at three locations in Germany, plant stand counts", "assay_type": "in vivo, Corvus", "settings": "corn seed, denatonium benzoate 1 g/50.000 seeds", "description": "The bird repellent effect of denatonium benzoate has further been evaluated in additional field trials at three different location in Germany. Denatonium benzoate alone (DNB) or denatonium benzoate in combination with a solution of micronutrients (DNB+HA450) mixed with a sticker have been applied to the seeds. Denatonium benzoate has been applied in a concentration of 1 g/50.000 seeds. Three chemical references have been included in the trials: Korit (active substance: Ziram), Curb Crop Garden Powder with Sphere's formulation (active substance: aluminium ammonium sulphate) and Schwefal (active substance: organic sulfur). As negative control untreated seed has been used.\nPlant stand counts have been assessed and summarized. […] Results of earlier field trials have been confirmed."}, "crows": {"tested_on": "crows", "experiment": "Field trials on efficacy as a bird repellent, corn seed, plant stand counts", "assay_type": "in vivo, Corvus", "settings": "0.4 g/50.000 seeds with Redigo M or Maxim XL, 0.8 g/50.000 seeds stand-alone, plant stand counts 3 weeks after emergence, listed as denatonium benzoate", "description": "To evaluate the efficacy of different substances as a bird repellent, 25 locations throughout Europe have been identified with a potentially high pressure of bird damage. 17 different substances (DSM RD9103 BRP, Chili extract, Black Cumin oil, Yucca extract, Mentha pulegium extract, Aluminium-Ammonium-sulfate, Hops extract, fat encapsulated plant extracts, alginate encapsulated plant extracts, Tefluthrin, Thiram, Ziram, Methiocarb, yellow colour substance, denatonium benzoate, SatecWFO20, Redigo M, Maxim XL) have been chosen to evaluate differences on feeding behavior of crows. Three chemical references have been included in the trial: Mesurol liquid (Active substance Methiocarb), Korit (Active Substance Ziram) and TMTD (Active Substance Thiram). Mesurol liquid (Methiocarb) was the standard bird repellent in the past, with a European expiry date of the 3rd of April 2020. TMTD (Thiram) can be used until 30th of January 2020. Korit (Ziram) expires in 2021.\nDenatonium benzoate has been tested in 2 different concentrations: 0.4 g/50.000 seeds in combination with standard fungicides Redigo M and Maxim XL and 0.8 g/50.000 seeds as a stand-alone. […]\n3 weeks after emergence, 9 locations with bird damage have been identified. Plant stand counts have been assessed and summarized."}, "[1]": {"experiment": "LC-MS-MS determination of denatonium benzoate in corn plants grown from treated seed", "assay_type": "in vivo, Zea mays", "settings": "for Bitrex concentration: first leaf of corn seedling", "method": "To determine, if denatonium benzoate could be systemic (taken up by the plant), a Liquid Chromatography with tandem mass spectrometry (LC-MS-MS) was performed, which is a powerful analytical technique that combines the separating power of liquid chromatography with the highly sensitive and selective mass analysis capability of triple quadrupole mass spectrometry. Therefore, we used 1) seedlings just after field emergence to determine the content of denatonium benzoate in the complete plant and in the sprout separately (Table 3), as well as 2) middle-aged plants (V6-V8), where the leaves have been investigated (Table 4).\nBeside above experiments the concentration of Bitrex in the first leaf of the seedling have been measured wherein different dosages of Bitrex have been applied to the seed. The higher the application rate, the higher was the Bitrex concentration in the tested leaf tissue."}},
  "note": "Where “and” joins values, the source holds several entries; their conditions need not be identical. Equal entries are not always repeated. Entries after “also recorded” stand apart in the source; their conditions may differ.",
  "data": [
    {"smiles": "CC[N+](CC)(CC(=O)Nc1c(C)cccc1C)Cc1ccccc1.O=C([O-])c1ccccc1", "note": "[Bitrex, N-Benzyl-2-(2,6-dimethylanilino)-N, N-diethyl-2-oxoethan-1-aminium benzoate]", "values": [
      {"measurement": "PHYGEN phytotoxicity, stage V3", "setting": "maize plants; 5 g Bitrex per 50,000 seeds", "value": 0, "unit": "% per plot"},
      {"measurement": "PHYGEN phytotoxicity, stage V5", "setting": "maize plants; 5 g Bitrex per 50,000 seeds", "value": 0, "unit": "% per plot"},
      {"measurement": "PHYGEN phytotoxicity, stage E", "setting": "maize plants; 5 g Bitrex per 50,000 seeds", "value": 0, "unit": "% per plot"},
      {"measurement": "VIGOR, stage E", "setting": "maize plants; 5 g Bitrex per 50,000 seeds", "value": 10},
      {"measurement": "VIGOR, stage V3", "setting": "maize plants; 5 g Bitrex per 50,000 seeds", "value": 10},
      {"measurement": "VIGOR, stage V5", "setting": "maize plants; 5 g Bitrex per 50,000 seeds", "value": 10},
      {"measurement": "PHYGEN phytotoxicity, stage V3", "setting": "maize plants; 10 g Bitrex per 50,000 seeds", "value": 0, "unit": "% per plot"},
      {"measurement": "PHYGEN phytotoxicity, stage V5", "setting": "maize plants; 10 g Bitrex per 50,000 seeds", "value": 0, "unit": "% per plot"},
      {"measurement": "PHYGEN phytotoxicity, stage E", "setting": "maize plants; 10 g Bitrex per 50,000 seeds", "value": 0, "unit": "% per plot"},
      {"measurement": "VIGOR, stage E", "setting": "maize plants; 10 g Bitrex per 50,000 seeds", "value": 10},
      {"measurement": "VIGOR, stage V3", "setting": "maize plants; 10 g Bitrex per 50,000 seeds", "value": 10},
      {"measurement": "VIGOR, stage V5", "setting": "maize plants; 10 g Bitrex per 50,000 seeds", "value": 10},
      {"measurement": "PHYGEN phytotoxicity, stage V3", "setting": "maize plants; 20 g Bitrex per 50,000 seeds", "value": 0, "unit": "% per plot"},
      {"measurement": "PHYGEN phytotoxicity, stage V5", "setting": "maize plants; 20 g Bitrex per 50,000 seeds", "value": 0, "unit": "% per plot"},
      {"measurement": "PHYGEN phytotoxicity, stage E", "setting": "maize plants; 20 g Bitrex per 50,000 seeds", "value": 0, "unit": "% per plot"},
      {"measurement": "VIGOR, stage E", "setting": "maize plants; 20 g Bitrex per 50,000 seeds", "value": 10},
      {"measurement": "VIGOR, stage V3", "setting": "maize plants; 20 g Bitrex per 50,000 seeds", "value": 10},
      {"measurement": "VIGOR, stage V5", "setting": "maize plants; 20 g Bitrex per 50,000 seeds", "value": 10},
      {"measurement": "negative effect on plant vitality with respect to phytotoxicity and plant vigor", "setting": "maize plants; Bitrex applied at high concentration (5-20 g per 50,000 seeds), field trial", "value": "has not been observed"},
      {"measurement": "efficiency as corvid repellent for corn", "setting": "corvid", "value": "excellent effect; also recorded: comparable with the best bird repellents like Korit and Sphere"},
      {"measurement": "efficiency as corvid repellent for corn", "setting": "crows", "value": "excellent effect; also recorded: comparable or even better than the best bird repellents like Thiram, Korit and Mesurol"},
      {"measurement": "μg DNB/plant or sprout", "setting": "[1]; corn seedlings just after field emergence, complete plants", "value": "5.87 μg DNB/plant or sprout"},
      {"measurement": "concentration in sprouts", "setting": "[1]; corn, early stage", "value": "200-800 ppb"},
      {"measurement": "concentration in the complete plant", "setting": "[1]; corn, early stage", "value": "10-20 ppm"},
      {"measurement": "Bitrex concentration", "setting": "[1]; 0.8 g/unit applied to seed", "value": 36.8, "unit": "ng/g"},
      {"measurement": "Bitrex concentration", "setting": "[1]; 1 g/unit applied to seed", "value": "96.2 ng/g and 88.7 ng/g and 75.2 ng/g and 55.0 ng/g and 70.4 ng/g and 97.1 ng/g"},
      {"measurement": "Bitrex concentration", "setting": "[1]; 2 g/unit applied to seed", "value": "178.2 ng/g and 155.6 ng/g"},
      {"measurement": "concentration in leaves", "setting": "[1]; middle-aged corn plants", "value": "5-20 ppb"},
      {"measurement": "Final Conc.", "setting": "[1]; middle-aged corn plants (V6-V8), leaves, sample 14 DNB 0.8g, plants P1-P3, listed as DNB", "value": "5.49 ppb/ng/g and 5.34 ppb/ng/g and 5.46 ppb/ng/g"}
    ]}
  ]
}
